Article PMC12030627, “Radioiodinated Bicyclic RGD Peptide Derivatives for Enhanced Tumor Accumulation” (Pharmaceuticals, 2025)
Starred links: 1 amine or outer side, 2 acyl side, 3 side chain; linkers in the order of their positions; H or OH if unused. Positions of bridges follow the written chain, without caps; N, C: chain ends. Non-standard residues stand in square brackets, D forms with d. Residues, ends and D or L forms follow the SMILES beside them. *: point of attachment. Butanoyl(4-(4-I-phenyl)) = O=C(CCCc1ccc(I)cc1)*; TBMB = c1c(C[*:1])cc(C[*:3])cc1C[*:2]; Palmitoyl = CCCCCCCCCCCCCCCC(=O)*; Benzoyl(3-I) = O=C(c1cccc(I)c1)*; 4Abz = Nc1ccc(C(=O)O)cc1

Tests used:
His-tagged integrin αVβ3 = molecular target: T1, His-tagged integrin αVβ3 (Homo sapiens, UniProt P05106+P06756); assay: In vitro selectivity assay, His-tag Dynabeads pulldown, integrin αVβ3; format: binding; details: for Radioactivity accumulation in αVβ3 protein: 10 kBq probe, 10 pmol His-tagged integrin, 37 °C 2 h, pH 7.4 buffer, without cyclo-(RGDfK); for Radioactivity accumulation in αVβ3 protein with cyclo-(RGDfK) blocking versus free: cyclo-(RGDfK) 25 μM preincubated 30 min at 37 °C, 2 h incubation, unpaired t-test p < 0.001
T1 construct: purchased ACRO Biosystems IT3-H52E3
Experimental: (§1) Binding assays were conducted following our previously reported method, using the Dynabeads™ His-Tag Isolation and Pulldown protocol (Thermo Fisher Scientific, Tokyo, Japan). Briefly, [^125I]bcRGDpal or [^125I]bcRGDiba (10 kBq/sample) was incubated at 37 °C for 2 h in 200 μL of incubation buffer (3.25 mM sodium phosphate, 70 mM NaCl, 0.01% Tween 20, pH 7.4) with 10 pmol of His-tagged integrin αVβ3, αVβ5, or α5β1 proteins (αVβ3: IT3-H52E3, ACRO Biosystems, Newark, DE, USA; αVβ5: 2528-AV, R&D Systems, Minneapolis, MN, USA; α5β1: CT014-H2508H, Sino Biological, Beijing, China). For the inhibition group, cyclo(RGDfK) (25 μM, S7834, Selleck, Houston, TX, USA) was preincubated with the integrin protein for 30 min at 37 °C. Next, A 2× binding buffer (100 mM sodium phosphate, 600 mM NaCl, 0.01% Tween 20, pH 8.0) was mixed with the solution at a 1:1 volume ratio and incubated with 5 μL of magnetic beads at 37 °C for 10 min to enable protein immobilization. Following immobilization, the beads were rinsed three times with the binding buffer, and radioactivity was measured using a NaI well-type scintillation counter (2480 Wizard2; PerkinElmer Japan, Yokohama, Japan). Protein binding was expressed as %dose/nmol protein.

His-tagged integrin αVβ5 = molecular target: T2, His-tagged integrin αVβ5 (Homo sapiens, UniProt P06756+P18084); assay: In vitro selectivity assay, His-tag Dynabeads pulldown, integrin αVβ5; format: binding; details: cyclo-(RGDfK) 25 μM blocking; 2 h incubation at 37 °C
T2 construct: purchased R&D Systems 2528-AV
Experimental: as §1

T1 sequence (P06756 31-992 limits assumed): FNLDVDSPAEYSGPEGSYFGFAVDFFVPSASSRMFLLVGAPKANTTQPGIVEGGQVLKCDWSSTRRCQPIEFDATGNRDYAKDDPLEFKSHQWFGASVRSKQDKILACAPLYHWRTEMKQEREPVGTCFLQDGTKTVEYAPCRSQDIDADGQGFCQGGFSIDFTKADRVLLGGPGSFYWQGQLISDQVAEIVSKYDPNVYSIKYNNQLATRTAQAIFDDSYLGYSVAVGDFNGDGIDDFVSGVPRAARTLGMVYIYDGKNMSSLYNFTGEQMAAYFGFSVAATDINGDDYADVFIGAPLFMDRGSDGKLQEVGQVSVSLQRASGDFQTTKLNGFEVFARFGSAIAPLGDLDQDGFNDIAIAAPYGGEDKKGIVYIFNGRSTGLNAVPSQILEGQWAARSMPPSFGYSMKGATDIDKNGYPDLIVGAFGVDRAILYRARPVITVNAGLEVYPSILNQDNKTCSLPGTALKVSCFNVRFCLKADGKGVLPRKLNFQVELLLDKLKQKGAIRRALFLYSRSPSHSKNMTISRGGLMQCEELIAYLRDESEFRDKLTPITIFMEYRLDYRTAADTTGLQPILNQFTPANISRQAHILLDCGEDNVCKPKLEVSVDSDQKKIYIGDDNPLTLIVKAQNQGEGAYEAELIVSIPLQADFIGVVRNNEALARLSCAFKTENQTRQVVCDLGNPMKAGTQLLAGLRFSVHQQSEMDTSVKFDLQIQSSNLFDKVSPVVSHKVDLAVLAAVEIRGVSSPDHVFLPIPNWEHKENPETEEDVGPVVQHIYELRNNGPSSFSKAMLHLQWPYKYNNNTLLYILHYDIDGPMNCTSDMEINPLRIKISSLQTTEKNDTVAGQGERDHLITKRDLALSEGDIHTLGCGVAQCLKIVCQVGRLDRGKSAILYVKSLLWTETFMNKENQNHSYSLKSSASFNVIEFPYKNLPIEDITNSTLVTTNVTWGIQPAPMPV
T1 sequence (P05106 27-718 limits assumed): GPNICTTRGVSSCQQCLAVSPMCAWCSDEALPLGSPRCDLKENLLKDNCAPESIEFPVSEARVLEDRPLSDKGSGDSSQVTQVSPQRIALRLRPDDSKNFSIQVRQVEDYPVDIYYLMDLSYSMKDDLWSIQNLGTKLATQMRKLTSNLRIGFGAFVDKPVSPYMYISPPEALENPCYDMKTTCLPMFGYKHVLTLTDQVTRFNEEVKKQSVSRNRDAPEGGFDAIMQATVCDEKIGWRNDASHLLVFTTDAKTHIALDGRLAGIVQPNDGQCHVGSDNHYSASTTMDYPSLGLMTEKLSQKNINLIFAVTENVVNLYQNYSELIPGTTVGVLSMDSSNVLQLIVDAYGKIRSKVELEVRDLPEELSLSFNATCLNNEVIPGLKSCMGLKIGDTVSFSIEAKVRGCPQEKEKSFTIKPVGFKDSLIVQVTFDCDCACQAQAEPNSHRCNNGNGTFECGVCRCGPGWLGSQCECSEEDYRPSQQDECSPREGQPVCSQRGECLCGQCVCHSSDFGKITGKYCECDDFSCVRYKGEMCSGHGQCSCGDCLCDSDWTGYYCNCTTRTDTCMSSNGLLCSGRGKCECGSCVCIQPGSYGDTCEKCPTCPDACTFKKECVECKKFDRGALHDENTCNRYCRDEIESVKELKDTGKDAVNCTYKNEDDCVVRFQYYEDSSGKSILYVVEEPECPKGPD
T2 sequence (P06756 31-992 limits assumed): as the sequence (P06756 31-992 limits assumed) above
T2 sequence (P18084 24-719 limits assumed): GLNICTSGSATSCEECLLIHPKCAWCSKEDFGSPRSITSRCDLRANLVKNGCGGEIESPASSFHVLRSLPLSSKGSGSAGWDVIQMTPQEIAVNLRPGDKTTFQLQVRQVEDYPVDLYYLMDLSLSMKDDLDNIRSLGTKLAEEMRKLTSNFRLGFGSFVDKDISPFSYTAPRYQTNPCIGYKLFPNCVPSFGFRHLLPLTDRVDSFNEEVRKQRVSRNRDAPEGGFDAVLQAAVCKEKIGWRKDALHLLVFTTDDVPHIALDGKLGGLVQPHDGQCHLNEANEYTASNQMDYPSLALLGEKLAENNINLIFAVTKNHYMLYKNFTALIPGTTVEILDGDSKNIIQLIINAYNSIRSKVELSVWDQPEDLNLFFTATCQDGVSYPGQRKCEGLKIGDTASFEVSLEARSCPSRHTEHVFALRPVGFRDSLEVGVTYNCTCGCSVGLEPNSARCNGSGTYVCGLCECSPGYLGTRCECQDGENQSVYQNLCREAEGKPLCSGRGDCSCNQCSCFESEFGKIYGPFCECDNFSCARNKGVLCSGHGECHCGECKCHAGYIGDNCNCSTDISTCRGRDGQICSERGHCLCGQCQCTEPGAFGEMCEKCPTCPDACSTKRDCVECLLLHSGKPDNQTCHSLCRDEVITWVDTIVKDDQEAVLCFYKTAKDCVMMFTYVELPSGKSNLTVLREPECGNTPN

Row | SMILES | Radioactivity accumulation in αVβ3 protein (His-tagged integrin αVβ3) | Radioactivity accumulation in αVβ3 protein with cyclo-(RGDfK) blocking versus free (His-tagged integrin αVβ3) | Radioactivity accumulation in αVβ5 protein, treatment versus inhibitor group (His-tagged integrin αVβ5)
1 | N=C(N)NCCC[C@@H]1NC(=O)[C@H]2CSCc3cc(cc(c3)CSC[C@H](C(N)=O)NC(=O)[C@H](CC(=O)O)NC(=O)CNC1=O)CSC[C@H](NC(=O)CNC(=O)[C@H](CO)NC(=O)c1ccc(NC(=O)CNC(=O)[C@H](CO)NC(=O)[C@@H]3CCCN3C(=O)[C@@H]3CCCN3C(=O)[C@@H]3CCCN3C(=O)[C@H](CCCCNC(=O)c3cccc(I)c3)NC(=O)CCCc3ccc(I)cc3)cc1)C(=O)N[C@@H](Cc1c[nH]cn1)C(=O)N1CCC[C@H]1C(=O)N[C@@H](CCC(N)=O)C(=O)N2 [[^125I]bcRGDiba] ({Butanoyl(4-(4-I-phenyl))}-K(Benzoyl(3-I))PPPSG[4Abz]SGCHPQ[dC]RGD[dC]-NH2; linker 10-14-18 via TBMB) | high radioactivity accumulation | significantly inhibited | No differences
2 | CCCCCCCCCCCCCCCC(=O)N[C@@H](CCCCNC(=O)c1cccc(I)c1)C(=O)N1CCC[C@H]1C(=O)N1CCC[C@H]1C(=O)N1CCC[C@H]1C(=O)N[C@@H](CO)C(=O)NCC(=O)Nc1ccc(C(=O)N[C@@H](CO)C(=O)NCC(=O)N[C@H]2CSCc3cc4cc(c3)CSC[C@@H](NC(=O)[C@H](CCC(N)=O)NC(=O)[C@@H]3CCCN3C(=O)[C@H](Cc3c[nH]cn3)NC2=O)C(=O)N[C@@H](CCCNC(=N)N)C(=O)NCC(=O)N[C@@H](CC(=O)O)C(=O)N[C@@H](C(N)=O)CSC4)cc1 [[^125I]bcRGDpal] (Palmitoyl-K(Benzoyl(3-I))PPPSG[4Abz]SGCHPQ[dC]RGD[dC]-NH2; linker 10-14-18 via TBMB) | high radioactivity accumulation | significantly inhibited | No differences
